Reference: ChEMBL document CHEMBL1138460, “Synthesis of a new opioid ligand having the oxabicyclo[3.2.1]octane skeleton using a new rearrangement reaction” (Bioorg Med Chem Lett, 2009)

Experiments:
[1] = Displacement of [3H]NTI from delta opioid receptor in guinea pig forebrain; set-up: species or system Cavia porcellus
[2] = target: Opioid receptor (mu and kappa) (Cavia porcellus) (UniProt P41144+P97266); assay: Ratio of Ki for guinea pig mu opioid receptor to Ki for guinea pig kappa opioid receptor
Mu-type opioid receptor = Mu-type opioid receptor (Cavia porcellus, UniProt P97266); assay: Displacement of [3H]DAMGO from mu opioid receptor in guinea pig forebrain
[3] = target: Kappa-type opioid receptor (Cavia porcellus, UniProt P41144); assay: Displacement of [3H]U69593 from kappa opioid receptor in guinea pig cerebellum; assay type: tissue-based
Chain of Kappa-type opioid receptor (P41144 whole entry): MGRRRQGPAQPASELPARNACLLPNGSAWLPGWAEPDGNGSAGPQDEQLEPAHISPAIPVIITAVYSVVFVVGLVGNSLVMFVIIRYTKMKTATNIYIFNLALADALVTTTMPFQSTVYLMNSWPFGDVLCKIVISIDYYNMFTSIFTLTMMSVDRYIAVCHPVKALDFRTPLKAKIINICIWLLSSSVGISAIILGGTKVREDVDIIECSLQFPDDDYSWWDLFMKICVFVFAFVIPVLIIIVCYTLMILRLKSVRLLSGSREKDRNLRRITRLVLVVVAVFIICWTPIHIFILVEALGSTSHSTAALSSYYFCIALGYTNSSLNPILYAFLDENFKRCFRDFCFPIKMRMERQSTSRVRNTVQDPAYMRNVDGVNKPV

Chain of Opioid receptor (mu and kappa) (Cavia porcellus) (P41144 whole entry, looked up): as the sequence (P41144 whole entry) above
Chain of Opioid receptor (mu and kappa) (Cavia porcellus) (P97266 whole entry, looked up): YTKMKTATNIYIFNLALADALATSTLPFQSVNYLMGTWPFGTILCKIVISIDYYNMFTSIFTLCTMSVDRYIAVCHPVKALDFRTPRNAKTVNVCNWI
Chain of Mu-type opioid receptor (P97266 whole entry): as the sequence (P97266 whole entry, looked up) above

| SMILES | Ki [1] [nM] | Ratio Ki [2] | Ki (Mu-type opioid receptor) [nM] | Ki [3] [nM] |
| --- | --- | --- | --- | --- |
| O=C1CC[C@@]2(O)[C@H]3Cc4ccc(O)c5c4[C@@]2(CCN3CC2CC2)[C@H]1O5 [NALTREXONE] | 20.7 | – | – | – |
| OC[C@]12CC[C@@]3(O1)[C@H]1Cc4ccc(O)cc4[C@@]3(CCN1CC1CC1)C2 | 3.5 | 1.42 | 0.145 | 0.102 |
| O=C1C[C@]23CCN(CC4CC4)[C@H](Cc4ccc(O)cc42)[C@]32CC[C@H]1O2 | 6.84 | 1.7 | 0.397 | 0.233 |
